Measured values from PubChem BioAssay (NCI).
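Dose response: 5 concentrations. Exposure: 48 h. Format: 96-well plates. Endpoint: linear interpolation; highest concentration if not reached. TGI: total growth inhibition.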

Legend:
Experiment in all cases: growth of human tumour cells (NCI), 48 h
RPMI-8226 leukemia = system: RPMI-8226 leukemia
SK-MEL-28 melanoma = system: SK-MEL-28 melanoma
T-47D breast = system: T-47D breast
MDA-MB-435 = system: MDA-MB-435
RXF 393 renal = system: RXF 393 renal
UACC-62 melanoma = system: UACC-62 melanoma
PC-3 prostate = system: PC-3 prostate
EKVX NSCLC = system: EKVX NSCLC
HS 578T breast = system: HS 578T breast
A498 renal = system: A498 renal
NCI/ADR-RES ovarian = system: NCI/ADR-RES ovarian
HOP-92 NSCLC = system: HOP-92 NSCLC
HCC-2998 colon = system: HCC-2998 colon
NCI-H23 lung = system: NCI-H23 lung
COLO 205 colon = system: COLO 205 colon
ACHN renal = system: ACHN renal
SNB-19 CNS = system: SNB-19 CNS
SW-620 colon = system: SW-620 colon
KM12 colon = system: KM12 colon
HCT-116 colon = system: HCT-116 colon
LOX IMVI melanoma = system: LOX IMVI melanoma
HOP-62 NSCLC = system: HOP-62 NSCLC
IGROV1 ovarian = system: IGROV1 ovarian
MALME-3M melanoma = system: MALME-3M melanoma
K-562 leukemia = system: K-562 leukemia
MCF7 breast = system: MCF7 breast
SK-OV-3 ovarian = system: SK-OV-3 ovarian
CCRF-CEM leukemia = system: CCRF-CEM leukemia
SF-268 CNS = system: SF-268 CNS
TK-10 renal = system: TK-10 renal
OVCAR-5 ovarian = system: OVCAR-5 ovarian
SF-295 CNS = system: SF-295 CNS
M14 melanoma = system: M14 melanoma
UACC-257 melanoma = system: UACC-257 melanoma
CAKI-1 renal = system: CAKI-1 renal
OVCAR-4 ovarian = system: OVCAR-4 ovarian
SR leukemia = system: SR leukemia
A549 NSCLC = system: A549 NSCLC
OVCAR-8 ovarian = system: OVCAR-8 ovarian
BT-549 breast = system: BT-549 breast
NCI-H460 lung = system: NCI-H460 lung
HT29 colon = system: HT29 colon
HL-60(TB) leukemia = system: HL-60(TB) leukemia
SK-MEL-5 melanoma = system: SK-MEL-5 melanoma
SN12C renal = system: SN12C renal
DU-145 prostate = system: DU-145 prostate
U251 CNS = system: U251 CNS
MOLT-4 leukemia = system: MOLT-4 leukemia
MDA-MB-231 breast = system: MDA-MB-231 breast
SK-MEL-2 melanoma = system: SK-MEL-2 melanoma
NCI-H226 lung = system: NCI-H226 lung
MDA-N = system: MDA-N
UO-31 renal = system: UO-31 renal
HCT-15 colon = system: HCT-15 colon
786-0 renal = system: 786-0 renal
NCI-H522 lung = system: NCI-H522 lung
SF-539 CNS = system: SF-539 CNS
OVCAR-3 ovarian = system: OVCAR-3 ovarian

Q: With `CC1=C(C)C2(C#N)C(=O)N3C(=NC(c4ccccc4)NC3c3ccccc3)C2(C#N)C(c2ccccc2)N1` (stereo not drawn) as the molecule, how does the TGI (RPMI-8226 leukemia) read?
A: > 100 µM

Q: And the TGI (SK-MEL-28 melanoma)?
A: > 100 µM

Q: And the TGI (T-47D breast)?
A: > 100 µM

Q: And the TGI (MDA-MB-435)?
A: > 100 µM

Q: And the TGI (RXF 393 renal)?
A: > 100 µM

Q: And the TGI (UACC-62 melanoma)?
A: > 100 µM

Q: And the TGI (PC-3 prostate)?
A: > 100 µM

Q: And the TGI (EKVX NSCLC)?
A: > 100 µM

Q: What about the TGI (HS 578T breast) of the same molecule?
A: > 100 µM

Q: What about the TGI (A498 renal) of the same molecule?
A: > 100 µM

Q: And the TGI (NCI/ADR-RES ovarian)?
A: > 100 µM

Q: What about the TGI (HOP-92 NSCLC) of the same molecule?
A: > 100 µM

Q: What about the TGI (HCC-2998 colon) of the same molecule?
A: > 100 µM

Q: And the TGI (NCI-H23 lung)?
A: > 100 µM

Q: And the TGI (COLO 205 colon)?
A: > 100 µM

Q: What about the TGI (ACHN renal) of the same molecule?
A: > 100 µM

Q: What about the TGI (SNB-19 CNS) of the same molecule?
A: > 100 µM

Q: And the TGI (SW-620 colon)?
A: > 100 µM

Q: And the TGI (KM12 colon)?
A: > 100 µM

Q: What about the TGI (HCT-116 colon) of the same molecule?
A: > 100 µM

Q: And the TGI (LOX IMVI melanoma)?
A: > 100 µM

Q: And the TGI (HOP-62 NSCLC)?
A: > 100 µM

Q: What about the TGI (IGROV1 ovarian) of the same molecule?
A: > 100 µM

Q: And the TGI (MALME-3M melanoma)?
A: > 100 µM

Q: What about the TGI (K-562 leukemia) of the same molecule?
A: > 100 µM

Q: What about the TGI (MCF7 breast) of the same molecule?
A: > 100 µM

Q: And the TGI (SK-OV-3 ovarian)?
A: > 100 µM

Q: And the TGI (CCRF-CEM leukemia)?
A: > 100 µM

Q: What about the TGI (SF-268 CNS) of the same molecule?
A: > 100 µM

Q: And the TGI (TK-10 renal)?
A: > 100 µM

Q: And the TGI (OVCAR-5 ovarian)?
A: > 100 µM

Q: And the TGI (SF-295 CNS)?
A: > 100 µM

Q: And the TGI (M14 melanoma)?
A: > 100 µM

Q: What about the TGI (UACC-257 melanoma) of the same molecule?
A: > 100 µM

Q: What about the TGI (CAKI-1 renal) of the same molecule?
A: > 100 µM

Q: What about the TGI (OVCAR-4 ovarian) of the same molecule?
A: > 100 µM

Q: What about the TGI (SR leukemia) of the same molecule?
A: > 100 µM

Q: What about the TGI (A549 NSCLC) of the same molecule?
A: > 100 µM

Q: What about the TGI (OVCAR-8 ovarian) of the same molecule?
A: > 100 µM

Q: And the TGI (BT-549 breast)?
A: > 100 µM

Q: And the TGI (NCI-H460 lung)?
A: > 100 µM

Q: And the TGI (HT29 colon)?
A: > 100 µM

Q: And the TGI (HL-60(TB) leukemia)?
A: > 100 µM

Q: What about the TGI (SK-MEL-5 melanoma) of the same molecule?
A: > 100 µM

Q: And the TGI (SN12C renal)?
A: > 100 µM

Q: What about the TGI (DU-145 prostate) of the same molecule?
A: > 100 µM

Q: And the TGI (U251 CNS)?
A: > 100 µM

Q: And the TGI (MOLT-4 leukemia)?
A: > 100 µM

Q: What about the TGI (MDA-MB-231 breast) of the same molecule?
A: > 100 µM

Q: What about the TGI (SK-MEL-2 melanoma) of the same molecule?
A: > 100 µM

Q: And the TGI (NCI-H226 lung)?
A: > 100 µM

Q: And the TGI (MDA-N)?
A: > 100 µM

Q: What about the TGI (UO-31 renal) of the same molecule?
A: > 100 µM

Q: What about the TGI (HCT-15 colon) of the same molecule?
A: > 100 µM

Q: What about the TGI (786-0 renal) of the same molecule?
A: > 100 µM

Q: What about the TGI (NCI-H522 lung) of the same molecule?
A: > 100 µM

Q: `Cc1ccc(/C(O)=C/c2nc3ccccc3[nH]c2=O)cc1` was tested. Which TGI (RPMI-8226 leukemia) did it give?
A: 47.5 µM

Q: And the TGI (SK-MEL-28 melanoma)?
A: 23.2 µM

Q: What about the TGI (T-47D breast) of the same molecule?
A: 16.3 µM

Q: What about the TGI (MDA-MB-435) of the same molecule?
A: 31.8 µM

Q: And the TGI (RXF 393 renal)?
A: 7.1 µM

Q: What about the TGI (UACC-62 melanoma) of the same molecule?
A: 9.38 µM

Q: And the TGI (PC-3 prostate)?
A: > 100 µM

Q: What about the TGI (EKVX NSCLC) of the same molecule?
A: 21.1 µM

Q: What about the TGI (HS 578T breast) of the same molecule?
A: 6.79 µM

Q: And the TGI (A498 renal)?
A: 58.2 µM

Q: What about the TGI (NCI/ADR-RES ovarian) of the same molecule?
A: 23 µM

Q: What about the TGI (HOP-92 NSCLC) of the same molecule?
A: 27.1 µM

Q: And the TGI (HCC-2998 colon)?
A: > 100 µM

Q: What about the TGI (NCI-H23 lung) of the same molecule?
A: 33.4 µM

Q: What about the TGI (COLO 205 colon) of the same molecule?
A: > 100 µM

Q: What about the TGI (ACHN renal) of the same molecule?
A: 14.5 µM

Q: What about the TGI (SNB-19 CNS) of the same molecule?
A: 27.8 µM

Q: And the TGI (KM12 colon)?
A: > 100 µM

Q: What about the TGI (HCT-116 colon) of the same molecule?
A: 5.7 µM

Q: And the TGI (LOX IMVI melanoma)?
A: 52.1 µM

Q: What about the TGI (HOP-62 NSCLC) of the same molecule?
A: 5.16 µM

Q: And the TGI (IGROV1 ovarian)?
A: 5.92 µM

Q: What about the TGI (MALME-3M melanoma) of the same molecule?
A: 13.4 µM

Q: And the TGI (K-562 leukemia)?
A: > 100 µM

Q: What about the TGI (MCF7 breast) of the same molecule?
A: > 100 µM

Q: What about the TGI (SF-539 CNS) of the same molecule?
A: 27.6 µM

Q: And the TGI (SK-OV-3 ovarian)?
A: 5.64 µM

Q: What about the TGI (CCRF-CEM leukemia) of the same molecule?
A: > 100 µM

Q: And the TGI (SF-268 CNS)?
A: 24 µM

Q: What about the TGI (TK-10 renal) of the same molecule?
A: 11.1 µM

Q: And the TGI (OVCAR-5 ovarian)?
A: > 100 µM

Q: And the TGI (SF-295 CNS)?
A: 14.6 µM

Q: What about the TGI (M14 melanoma) of the same molecule?
A: 73.4 µM

Q: What about the TGI (UACC-257 melanoma) of the same molecule?
A: 87.4 µM

Q: What about the TGI (CAKI-1 renal) of the same molecule?
A: 14.2 µM

Q: And the TGI (OVCAR-4 ovarian)?
A: 4.04 µM

Q: And the TGI (SR leukemia)?
A: 72.9 µM

Q: What about the TGI (A549 NSCLC) of the same molecule?
A: 19.6 µM

Q: And the TGI (OVCAR-8 ovarian)?
A: 12.2 µM

Q: What about the TGI (BT-549 breast) of the same molecule?
A: 95.3 µM

Q: What about the TGI (NCI-H460 lung) of the same molecule?
A: 37.3 µM

Q: What about the TGI (HT29 colon) of the same molecule?
A: 67.2 µM

Q: What about the TGI (HL-60(TB) leukemia) of the same molecule?
A: > 100 µM

Q: And the TGI (OVCAR-3 ovarian)?
A: 11.2 µM

Q: What about the TGI (SK-MEL-5 melanoma) of the same molecule?
A: > 100 µM

Q: What about the TGI (SN12C renal) of the same molecule?
A: 34 µM

Q: And the TGI (DU-145 prostate)?
A: 21.5 µM

Q: What about the TGI (U251 CNS) of the same molecule?
A: 22.6 µM

Q: And the TGI (MOLT-4 leukemia)?
A: > 100 µM

Q: What about the TGI (MDA-MB-231 breast) of the same molecule?
A: 15.2 µM

Q: And the TGI (SK-MEL-2 melanoma)?
A: 17.6 µM

Q: And the TGI (NCI-H226 lung)?
A: 6.4 µM

Q: And the TGI (MDA-N)?
A: > 100 µM

Q: And the TGI (UO-31 renal)?
A: 21 µM

Q: And the TGI (HCT-15 colon)?
A: > 100 µM

Q: What about the TGI (786-0 renal) of the same molecule?
A: 5.61 µM

Q: And the TGI (NCI-H522 lung)?
A: 6.59 µM
